Results published in US20160000938A1, “REAGENT FOR DIAGNOSIS OF OSTEOARTHRITIS COMPRISING PEPTIDE PROBE OF APOPEP-1” (priority 2013, published 2016).
Entries after “also recorded” stand apart in the source; their conditions may differ.

Legend:
[1] = system: arthritic joints of DMM mice; assay: In vivo optical imaging of fluorescence-labeled ApoPep-1 probe in DMM OA mice; set-up: species or system C57BL/6N mice; conditions: for OARSI grade of OA at which the probe detects OA / apoptotic chondrocytes: DMM model
Protocol: (§1) Male mice at 12 weeks of age were divided into three groups: Sham-ApoPep-1, OA-Control Peptide and OA-ApoPep-1 group (n=4-8/group). For OA model, we performed DMM surgery as described in previous studies (8, 23).
(§2) FlammaTM675-ApoPep-1 was intravenously (i.v.) injected from the tail vain (1 mM 100 μl/20 g) and allowed to circulate for the indicated time periods. In vivo optical imaging was conducted by scanning the mice under anesthesia by inhalation of isofluran (jw pharmaceutical, South Korea) in 80% N2O/20% O2 using Optix Explore (ART, Montreal, Canada). The excitation/emission wavelengths for FlammaTM675 were 676 nm/704 nm. Ex vivo optical imaging was performed with extracted hind limbs by the same method. FlammaTM675-NSSSVDK was used as the control peptide (18).

[2] = system: arthritic joints of DMM mice; assay: Ex vivo optical imaging of extracted hind limbs of DMM mice; type: in vivo, C57BL/6N mice
Protocol: as §1, §2

[3] = system: ATDC5 chondrocyte cell treated with staurosporine; assay: In vitro binding to apoptotic chondrocytes (immunocytochemistry); type: cell-based; conditions: fluorescence staining; for binding to apoptotic cells: chondrocytes treated with staurosporine; for binding to live cells: live chondrocytes
Protocol: ATDC5 chondrocyte cell was maintained in a mixture of DMEM and Ham's F-12 (DMEM/F12) medium (Lonza, USA) containing 5% fetal bovine serum (FBS) (Gibco-BRL, USA), 10 ug/ml of human transferrin (Sigma) and 3×10^-8 M of sodium selenite (Sigma) and penicillin/streptomycin. Apoptosis was induced by incubating cells with 0.5 uM Staurosporine (cell signaling, USA) for the indicated time periods. Apoptotic stages were determined by staining the cells with annexin V and ApoPep-1 conjugated with flamma 675. For immunocytochemistry staining, cells were incubated with 1% bovine serum albumin at 37° C. for 30 min for blocking and then binding with 10 μM flamma 675-conjugated peptide at 4° C. for 1 h. Cells were then costained with Alexa-594-annexin V (Invitrogen, Carlsbad, Calif., USA) for 15 min at room temperature in binding buffer (10 mM HEPES, pH 7.4, 140 mM NaCl, and 2.5 mM CaCl2). After fixation, cells were incubated with DAPI for nuclear staining and mounted with a ProLong® Antifade Kit.

[4] = system: apoptotic chondrocytes of DMM-operated articular cartilage; assay: In situ immunofluorescence staining and TUNEL assay of OA cartilage cryo-sections; set-up: species or system mice
Protocol: Hind limbs of mice were fixed with 4% paraformaldehyde in 0.1 M phosphate-buffered saline (PBS, pH 7.4) for 12 hours, and decalcified with 10% ethylene-diamine tetraacetic acid (EDTA, pH 7.4) for 3 weeks. Decalcified tissues were dipped in 20% sucrose/PBS solution overnight and embedded in OCT compound (Tissue-Tek) for making the frozen samples. Frozen samples were cut at 10 μm thickness from femur to tibia range for joint visible. Cut slices from each animal were selected for the staining with same primary antibodies to comparison at the same area of joint articular cartilage. The section was treated with a blocking solution (0.1% tween-20, 1% bovine serum albumin (BSA), 5% normal donkey serum in PBS) after washing with PBS, and then incubated at 4° C. 1 h with the primary antibodies such as rabbit polyclonal collagen 2 antibody (1:200; abcam, MA, USA), mouse monoclonal MMP-13 antibody (1:200; abcam, MA, USA). After PBS rinses, the sections were incubated with Alexa-594 or Alexa-488-conjugated secondary antibody for 30 min. Thereafter, the sections were incubated with 4′,6′-diamidino-2-phenylindole (DAPI, Sigma-Aldrich, St Louis, Mo., USA) for nuclear staining then mounted with a ProLong® Antifade Kit (Invitrogen, USA). […]

CQRPPR [ApoPep-1]
time after DMM operation at which the probe can detect apoptotic change ([1]; DMM OA model): 2 weeks
OARSI grade of OA at which the probe detects OA / apoptotic chondrocytes [1]: grade I OA; also recorded: Grades I
OARSI grade of OA at which the probe detects OA / apoptotic chondrocytes ([1]; listed as ApoPep1): Grade II
ApoPep-1 fluorescent signal from arthritic joints compared with 4 weeks ([1]; i.v. injection, 8 weeks after DMM operation): reduced
optimal time point for diagnosis after injection ([1]; i.v. injection, DMM mice): 30 min
time after injection after which ApoPep-1 binding is undetectable ([1]; i.v. injection, DMM mice): 8 h
time after injection of maximal ApoPep-1 binding ([1]; i.v. injection, DMM mice): 30 min
fluorescent signal time course after probe injection ([1]; images from 30 minutes to 24 hours after i.v. administration, DMM mice): clearly detectable from arthritic joint sat 30 minutes after the probe injection and decreased according to time course
ApoPep-1 fluorescent signal from arthritic joints ([1]; in vivo, i.v. injection, 4 weeks after DMM operation): maximal
ApoPep-1 fluorescent signal from arthritic joints compared with sham-ApoPep-1 and OA-control-Peptide groups ([1]; in vivo, i.v. injection, one week after DMM operation): no significant difference
ApoPep-1 fluorescent signal from arthritic joints compared with sham-ApoPep-1 and OA-control-Peptide groups ([1]; in vivo, i.v. injection, two weeks after DMM operation): detected strongly; also recorded: significant increase
ApoPep-1 fluorescent signal from arthritic joints ([2]; 4 weeks after DMM operation): maximal
ApoPep-1 fluorescent signal from arthritic joints compared with sham-ApoPep-1 and OA-control-Peptide groups ([2]; two weeks after DMM operation): significant increase
binding to apoptotic cells [3]: bind to apoptotic cells
binding to live cells [3]: not to live cells
correlation of TUNEL staining with ApoPep-1 signals ([4]; DMM models 2 weeks after surgery): strongly correlated
localisation of ApoPep-1 relative to type II collagen and MMP13 ([4]; DMM-operated articular cartilage, 2 weeks after surgery): detected where type II collagen decreased and MMP13 increased

annexin V: a 36 kDa protein that binds to phosphatidylserine, early marker of apoptotic cell death [reference compound]
binding to apoptotic cells [3]: bind to apoptotic cells
binding to live cells [3]: not to live cells
